The assay has as its target T1, system xc− (obligate cystine-glutamate transporter) (Homo sapiens, UniProt Q9UPY5).
T1 sequence (Q9UPY5 1-501): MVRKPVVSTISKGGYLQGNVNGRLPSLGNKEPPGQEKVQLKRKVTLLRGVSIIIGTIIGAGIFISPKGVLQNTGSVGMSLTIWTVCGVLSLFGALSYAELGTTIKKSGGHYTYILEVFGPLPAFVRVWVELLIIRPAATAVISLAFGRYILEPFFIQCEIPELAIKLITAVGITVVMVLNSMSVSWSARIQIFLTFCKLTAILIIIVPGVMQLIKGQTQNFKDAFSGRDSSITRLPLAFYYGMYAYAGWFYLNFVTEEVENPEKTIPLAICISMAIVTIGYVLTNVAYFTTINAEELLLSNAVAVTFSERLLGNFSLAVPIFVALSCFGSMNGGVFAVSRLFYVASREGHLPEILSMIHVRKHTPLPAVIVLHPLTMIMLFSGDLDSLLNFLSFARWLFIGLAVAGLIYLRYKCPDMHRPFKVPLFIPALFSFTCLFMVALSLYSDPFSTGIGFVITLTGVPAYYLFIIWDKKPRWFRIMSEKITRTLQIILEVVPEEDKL
T1 sequence (P08195 2-529 partner): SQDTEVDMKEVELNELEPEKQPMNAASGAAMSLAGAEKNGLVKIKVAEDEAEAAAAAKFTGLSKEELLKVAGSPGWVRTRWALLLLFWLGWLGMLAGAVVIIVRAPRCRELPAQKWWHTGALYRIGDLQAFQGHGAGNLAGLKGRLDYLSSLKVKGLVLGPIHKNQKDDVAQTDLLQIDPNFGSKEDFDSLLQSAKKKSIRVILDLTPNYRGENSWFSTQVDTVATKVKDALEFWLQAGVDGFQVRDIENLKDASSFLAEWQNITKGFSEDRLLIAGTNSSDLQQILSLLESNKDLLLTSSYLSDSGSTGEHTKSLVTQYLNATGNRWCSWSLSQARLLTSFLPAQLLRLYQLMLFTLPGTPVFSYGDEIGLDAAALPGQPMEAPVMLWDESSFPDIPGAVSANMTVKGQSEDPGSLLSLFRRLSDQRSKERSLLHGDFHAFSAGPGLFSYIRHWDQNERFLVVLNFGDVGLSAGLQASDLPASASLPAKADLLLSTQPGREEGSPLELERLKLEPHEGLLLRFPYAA
The assay is described as follows: inhibition of 3H-L-glutamate uptake. The assay is classed as cell-based. Particulars: SNB-19, read-out: Uptake ^a Sxc^-.

Activity data for 1 compound are collected here from PMC3159025 (2011).

Turning to `N[C@@H](CSSC[C@H](N)C(=O)O)C(=O)O` [L-Cystine], the activity at 500 µM turned out to be 22 ± 3%.
